Active and inactive are the calls of the source. No cut-off for these calls is given here.
Legend:
MDA-MB-231 [1] = assay: Induction of ferroptosis in human MDA-MB-231 cells assessed as cell viability incubated for 72 hrs in presence of ferroptosis inhibitor, ferrostatin-1 by MTT assay; format: functional, cell-based; conditions: MDA-MB-231, 72 h
MDA-MB-468 = assay: Antiproliferative activity against human MDA-MB-468 cells assessed as inhibition of cell viability at 1 uM incubated for 72 hrs by CCK-8 assay; format: functional, cell-based
4T1 = assay: Antiproliferative activity against mouse 4T1 cells assessed as inhibition of cell viability at 1 uM incubated for 72 hrs by MTT assay; format: functional, cell-based
HT-29 = assay: Antiproliferative activity against human HT-29 cells assessed as inhibition of cell viability at 1 uM incubated for 72 hrs by MTT assay; format: functional, cell-based
HepG2 = assay: Antiproliferative activity against human HepG2 cells assessed as inhibition of cell viability at 1 uM incubated for 72 hrs by MTT assay; format: functional, cell-based
U-87 MG = assay: Antiproliferative activity against human U87 cells assessed as inhibition of cell viability at 1 uM incubated for 72 hrs by MTT assay; format: functional, cell-based; conditions: U-87MG ATCC
K562 = assay: Antiproliferative activity against human K562 cells assessed as inhibition of cell viability at 1 uM incubated for 72 hrs by MTT assay; format: functional, cell-based
MCF-10A = assay: Cytotoxicity against human MCF-10A cells assessed as inhibition of cell viability at 1 uM incubated for 72 hrs by MTT assay; format: toxicity, cell-based
L02 = assay: Cytotoxicity against human L02 cells assessed as inhibition of cell viability at 1 uM incubated for 72 hrs by MTT assay; format: toxicity, cell-based; conditions: l02, 72 h
MDA-MB-231 [2] = assay: Inhibition of colony formation in human MDA-MB-231 cells at 5 to 20 nM incubated for 14 days by crystal violet staining based assay; format: functional, cell-based; conditions: dose 5-20 nM, time 14.0 day
MDA-MB-231 [3] = assay: Inhibition of colony formation in human MDA-MB-231 cells at 20 nM incubated for 14 days by crystal violet staining based assay; format: functional, cell-based; conditions: time 14.0 day
MDA-MB-231 [4] = assay: Induction of ferroptosis in human MDA-MB-231 cells assessed as cell viability at 1 uM incubated for 72 hrs in presence of autophagy inhibitor, 3-MA by MTT assay; format: functional, cell-based
MDA-MB-231 [5] = assay: Induction of ferroptosis in human MDA-MB-231 cells assessed as cell viability at 1 uM incubated for 72 hrs in presence of glutathione by MTT assay; format: functional, cell-based
MDA-MB-231 [6] = assay: Induction of ferroptosis in human MDA-MB-231 cells assessed as increase in intracellular lipid peroxidase by measuring decrease in red fluorescence intensity at 5 to 20 nM incubated for 8 hrs by C11-BODIPY-581/591 staining based confocal laser microscopy; format: functional, cell-based; conditions: dose 5-20 nM
MDA-MB-231 [7] = assay: Induction of ferroptosis in human MDA-MB-231 cells assessed as increase in intracellular Fe2+ level at 5 to 20 nM incubated for 8 hrs by FerroOrange staining based confocal laser microscopy; format: functional, cell-based; conditions: dose 5-20 nM
MDA-MB-231 [8] = assay: Induction of ferroptosis in human MDA-MB-231 cells assessed as increase in intracellular ROS accumulation by measuring green fluorescence intensity at 5 to 20 nM incubated for 8 hrs by DCFH-DA staining based confocal laser microscopy; format: functional, cell-based; conditions: dose 5-20 nM
MDA-MB-231 [9] = assay: Induction of ferroptosis-mediated morphological changes in human MDA-MB-231 cells assessed as increased membrane density at 20 nM incubated for 6 hrs by TEM analysis; format: functional, cell-based
MDA-MB-231 [10] = assay: Induction of ferroptosis-mediated morphological changes in human MDA-MB-231 cells assessed as change in nuclear morphology at 20 nM incubated for 6 hrs by TEM analysis; format: functional, cell-based
[11] = target: T1, Phospholipid hydroperoxide glutathione peroxidase GPX4 (Homo sapiens, UniProt P36969); assay: Inhibition of GPX4 (unknown origin) incubated for 1 hrs in presence of glutathione and glutathione reductase by microplate reader analysis
T1 sequence (P36969 whole entry): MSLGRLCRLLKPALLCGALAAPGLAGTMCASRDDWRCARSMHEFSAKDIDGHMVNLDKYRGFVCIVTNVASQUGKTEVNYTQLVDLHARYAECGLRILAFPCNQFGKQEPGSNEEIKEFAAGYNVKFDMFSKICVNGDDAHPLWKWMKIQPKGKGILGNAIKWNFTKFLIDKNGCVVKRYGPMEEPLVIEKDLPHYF

[12] = Toxicity in immunodeficient BALB/c mouse assessed as change in AST level at 20 mg/kg, ip for 14 days by biochemical analysis; format: organism-based; conditions: in vivo, 336 h, time 14 day
[13] = target: T1, Phospholipid hydroperoxide glutathione peroxidase GPX4; assay: Covalent inhibition of GPX4 (unknown origin) assessed as inhibition constant incubated for 30 to 90 mins in presence of glutathione, glutathione reductase and NADPH by microplate reader analysis
MDA-MB-231 [14] = assay: Induction of ferroptosis in human MDA-MB-231 cells with assessed as change in ACSL4 protein expression level at 5 to 20 nM incubated for 8 hrs in presence of ferroptosis inhibitor, ferrostatin-1 by Western blot analysis; format: functional, cell-based; conditions: dose 5-20 nM
MDA-MB-231 [15] = assay: Induction of ferroptosis in human MDA-MB-231 cells with assessed as decrease in xCT protein expression level at 5 to 20 nM incubated for 8 hrs by Western blot analysis; format: functional, cell-based; conditions: dose 5-20 nM
MDA-MB-231 [16] = assay: Induction of ferroptosis in human MDA-MB-231 cells with assessed as change in GPX4 mRNA expression level at 5 to 20 nM incubated for 8 hrs by qRT-PCR analysis; format: functional, cell-based; conditions: dose 5-20 nM
MDA-MB-231 [17] = assay: Antitumor activity against human MDA-MB-231 cells xenografted in immunodeficient BALB/c mouse assessed as tumor growth inhibition at 5 mg/kg,ip for 21 days consecutively every day; format: functional; conditions: MDA-MB-231, 504 h, time 21 day, read-out: TGI
MDA-MB-231 [18] = assay: Antitumor activity against human MDA-MB-231 cells xenografted in immunodeficient BALB/c mouse assessed as tumor growth inhibition at 10 mg/kg,ip for 21 days consecutively every day; format: functional; conditions: MDA-MB-231, 504 h, time 21 day, read-out: TGI
[19] = Toxicity in immunodeficient BALB/c mouse xenografted with human MDA-MB-231 cells assessed as morphological changes in liver at 20 mg/kg, ip for 21 days by H and E staining based microscopy; format: organism-based; conditions: in vivo, 504 h, time 21 day
[20] = Toxicity in immunodeficient BALB/c mouse xenografted with human MDA-MB-231 cells assessed as morphological changes in kidney at 20 mg/kg, ip for 21 days by H and E staining based microscopy; format: organism-based; conditions: in vivo, 504 h, time 21 day
[21] = Toxicity in immunodeficient BALB/c mouse assessed as change in CREA level at 20 mg/kg, ip for 14 days by biochemical analysis; format: organism-based; conditions: in vivo, 336 h, time 14 day
[22] = Toxicity in immunodeficient BALB/c mouse assessed as change in LDH level at 20 mg/kg, ip for 14 days by biochemical analysis; format: organism-based; conditions: in vivo, 336 h, time 14 day
[23] = Toxicity in immunodeficient BALB/c mouse assessed as change in CK level at 20 mg/kg, ip for 14 days by biochemical analysis; format: organism-based; conditions: in vivo, 336 h, time 14 day
[24] = Metabolic stability in human liver microsomes assessed as half life at 1 uM incubated upto 60 mins in presence of NADPH by LC-MS/MS analysis; format: ADME, Microsome
[25] = Metabolic stability in rat plasma at 1 uM and measured upto 24 hrs by LC-MS/MS analysis; format: ADME, cell-free

Row | Structure (SMILES) | IC50 (MDA-MB-231 [1]) | Activity (MDA-MB-468) | Activity (4T1) | Activity (HT-29) | Activity (HepG2) | Activity (U-87 MG) | Activity (K562) | Activity (MCF-10A) | Activity (L02) | inhibition (MDA-MB-231 [2]) | inhibition (MDA-MB-231 [3]) | Activity (MDA-MB-231 [4]) | Activity (MDA-MB-231 [5]) | Activity (MDA-MB-231 [6]) | Activity (MDA-MB-231 [7]) | Activity (MDA-MB-231 [8]) | Activity (MDA-MB-231 [9]) | Activity (MDA-MB-231 [10]) | IC50 [11] | Activity [12] | also measured
1 | COc1cc(N(C(=O)CBr)c2ccc3c(c2)OCCO3)cc(OC)c1F | 1750 nM | Active | Active | inactive | inactive | inactive | inactive | Non-Toxic | Non-Toxic | Dose-Dependent Effect | Active | inactive | Active | Dose-Dependent Effect | Active | Dose-Dependent Effect | Active | inactive | 130 nM | Toxic | Ki [13]: 590 nM; Activity (MDA-MB-231 [14]): inactive; Activity (MDA-MB-231 [15]): inactive; Activity (MDA-MB-231 [16]): inactive; inhibition in vivo at 5 mg/kg (MDA-MB-231 [17]): 18.9%; inhibition in vivo at 10 mg/kg (MDA-MB-231 [18]): 47.9%; Activity [19]: Non-Toxic; Activity [20]: Non-Toxic; Activity [21]: Toxic; Activity [22]: Toxic; Activity [23]: Toxic; half-life at 1 µM [24]: 0.79 min; Stability [25]: Stable
2 | COc1cc(N(C(=O)CCl)c2ccc3c(c2)OCCO3)cc(OC)c1F | 2570 nM | Active | Active | inactive | inactive | inactive | inactive | Non-Toxic | Non-Toxic | Dose-Dependent Effect | Active | inactive | Active | Dose-Dependent Effect | Active | Dose-Dependent Effect | Active | inactive | 120 nM | Toxic | Ki [13]: 630 nM; Activity (MDA-MB-231 [14]): inactive; Activity (MDA-MB-231 [15]): inactive; Activity (MDA-MB-231 [16]): inactive; inhibition in vivo at 5 mg/kg (MDA-MB-231 [17]): 50.4%; inhibition in vivo at 10 mg/kg (MDA-MB-231 [18]): 73.1%; Activity [19]: Non-Toxic; Activity [20]: Non-Toxic; Activity [21]: Toxic; Activity [22]: Toxic; Activity [23]: Toxic; half-life at 1 µM [24]: 3.34 min; Stability [25]: Stable

Source: ChEMBL document CHEMBL5346969 (J Med Chem, 2023)
